Laboratory results: patent US20020173502A1, “Pharmaceutically active compounds” (priority 2001, published 2002)

Key:
[1] = In vivo interconversion of compound 1A and the compound of Preparation 1; conditions: no species or method printed
[2] = Hepatocyte incubation, metabolism followed by turbulent flow LC-MS-MS; type: in vitro ADME, human, dog; conditions: test compound 2 μM, sampled 0-180 minutes; transitions 439 to 84 (ketone) and 441 to 84 (alcohol)
Experimental: Hepatocyte incubations were used to determine the metabolism of both compound 1A according to the present invention and also the compound of Preparation 1. In such testing a marker compound was routinely included to ensure reproducible, active preparations were obtained.
Standard methodologies relating to hepatocyte testing can be found in: Carlille, D, Zomorodi, K, Houston, B; Drug Met. Dispos. 1997, 25(8), pp903-911, “Scaling factors to relate drug metabolic clearance in hepatic microsomes isolated hepatocytes, and the intact liver”.
Marker compound: 0.3 mM Propranolol in 100% DMSO.
Test materials (e.g. compound 1A) 1 mg/ml stocks or 3 mM in 100% DMSO.
Human hepatocytes used at a concentration of 2×10^6 cells/ml (per compound tested).
Dog hepatocytes used at a concentration of 1×10^6 cells/ml (per compound tested).
William's E buffer (1 pot of William's E powder from Sigma, 900 ml distilled water, 2.2 g sodium bicarbonate, 100 ml Foetal Bovine Serum) STOP solution (Midazolam internal standard plus acetonitrile: 600 μl of 10 μg/ml midazolam +30 ml acetonitrile). […]
Hepatocyte viability was determined using the Trypan Blue Exclusion method by gentle mixing of 350 μl KH buffer+100 μI Trypan Blue solution+50 μl cell suspension in an eppendorf tube. The cells were then counted using a haemocytometer. […] The number of viable (colourless) cells within 10 squares was recorded. […]

[3] = target: T1, cGMP PDE5 (Homo sapiens, UniProt O76074); experiment: Phosphodiesterase (PDE) inhibitory activity, in vitro IC50; type: biochemical; conditions: read-out: IC50 as an inhibitor of cGMP PDE5
T1 construct: were obtained from human corpus cavernosum or human platelets; from tissue; host or cells: human corpus cavernosum or human platelets
Experimental: The compounds of the present invention are cGMP PDE5 inhibitors. In vitro PDE inhibitory activities against cyclic guanosine 3′,5′-monophosphate (CGMP) and cyclic adenosine 3′,5′-monophosphate (cAMP) phosphodiesterases were determined by measurement of their IC50 values (the concentration of compound required for 50% inhibition of enzyme activity).
The required PDE enzymes were isolated from a variety of sources, including human corpus cavernosum, human and rabbit platelets, human cardiac ventricle, human skeletal muscle and human and canine retina, essentially by the method of W. J. Thompson and M. M. Appleman (Biochem., 1971, 10, 311). In particular, the cGMP-specific PDE (PDE5) and the cGMP-inhibited cAMP PDE (PDE3) were obtained from human corpus cavernosum or human platelets; the cGMP-stimulated PDE (PDE2) was obtained from human corpus cavernosum and human platelets; the calcium/calmodulin (Ca/CAM)-dependent PDE (PDE1) from human cardiac ventricle; the cAMP-specific PDE (PDE4) from human skeletal muscle and human recombinant, expressed in SF9 cells; and the photoreceptor PDE (PDE6) from human or canine retina. Phosphodiesterases 7-11 were generated from full length human recombinant clones transfected into SF9 cells. […]

SMILES	conversion in vivo (pro-drug / metabolite relation) [1]	mass transition of the starting compound during hepatocyte incubation; product transition then appears [2]	IC50 [3] [nM]
CCCCOc1ncc(C(C)O)cc1-c1nc2c(CC)n(C3CN(CC)C3)nc2c(=O)[nH]1 (centres unmarked) [Example 1A, 5-[2-Butoxy-5-(1-hydroxyethyl)-3-pyridinyl]-3-ethyl-2-(1-ethyl-3-azetidinyl)-2,6-dihydro-7H-pyrazolo[4,3-d]pyrimidin-7-one]	converted in vivo to provide the compound of Preparation 1	reduces to levels below the detection limit of the equipment	825
CCCCOc1ncc(C(C)=O)cc1-c1nc2c(CC)n(C3CN(CC)C3)nc2c(=O)[nH]1 [Preparation 1, 5-(5-acetyl-2-butoxy-3-pyridinyl)-3-ethyl-2-(1-ethyl-3-azetidinyl)-2,6-dihydro-7H-pyrazolo[4,3-d]pyrimidin-7-one, reference compound]	Compound 1A is a metabolite of the compound of Preparation 1	reduces to levels below the detection limit of the equipment	
